Reference: US11897851B2, “Heterocyclic GLP-1 agonists” (Gasherbrum Bio, Inc., priority 2021, dated 2024)

target: T1, GLP-1 Receptor (Homo sapiens, UniProt P43220); assay: GLP-1R agonist cAMP stimulation assay (HEK293/GLP1R/CRE-LUC cells, Cisbio cAMP dynamic 2 kit); format: cell-based; details: HEK293/CRE-Luc cell line stably expressing the GLP-1 Receptor; 1000 cells/well; 30 min at 37° C.; 0.5 mM IBMX, 0.1% BSA; read-out: GLP1R cAMP Stimulation DR: EC50;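 also: compounds tested in half-log serial dilution, cAMP detected with cAMP-d2 and anti-cAMP cryptate antibody reagents after 1 h at room temperature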
T1 construct: host or cells: HEK293/GLP1R/CRE-LUC (HEK293/CRE-Luc stably expressing the GLP-1 receptor)
T1 sequence (P43220 24-463, species assumed): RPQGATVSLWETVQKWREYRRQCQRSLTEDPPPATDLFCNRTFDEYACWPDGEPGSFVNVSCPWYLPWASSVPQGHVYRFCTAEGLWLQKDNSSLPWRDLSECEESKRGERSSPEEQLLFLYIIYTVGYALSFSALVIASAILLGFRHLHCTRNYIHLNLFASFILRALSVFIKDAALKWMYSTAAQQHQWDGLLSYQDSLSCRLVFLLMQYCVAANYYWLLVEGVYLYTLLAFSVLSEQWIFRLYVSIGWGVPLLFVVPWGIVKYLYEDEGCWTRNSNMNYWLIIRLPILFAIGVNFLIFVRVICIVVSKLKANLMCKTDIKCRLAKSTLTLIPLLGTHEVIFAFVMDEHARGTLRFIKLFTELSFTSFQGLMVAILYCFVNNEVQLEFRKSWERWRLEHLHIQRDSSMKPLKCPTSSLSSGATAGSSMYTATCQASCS

Structure (SMILES)	EC50 [nM]
C/C(=C\c1cnc(CN2CCC(c3cccc4c3OC(c3ccc(Cl)cc3F)O4)CC2)n1C[C@@H]1CCO1)C(=O)O (stereo partly drawn) [Compound 132a, (E)-3-(2-((4-(2-(4-chloro-2-fluorophenyl)benzo[d][1,3]dioxol-4-yl)piperidin-1-yl)methyl)-1-((S)-oxetan-2-ylmethyl)-1H-imidazol-5-yl)-2-methylacrylic acid]	1.6
C/C(=C\c1cnc(CN2CCC(c3cccc4c3O[C@@H](c3ccc(Cl)cc3)O4)CC2)n1C[C@@H]1CCO1)C(=O)O [Compound 133a, (E)-3-(2-((4-((S)-2-(4-chlorophenyl)benzo[d][1,3]dioxol-4-yl)piperidin-1-yl)methyl)-1-(((S)-oxetan-2-yl)methyl)-1H-imidazol-5-yl)-2-methylacrylic acid]	5.4
C/C(=C\c1cnc(CN2CCC(c3cccc4c3O[C@H](c3ccc(Cl)cc3)O4)CC2)n1C[C@@H]1CCO1)C(=O)O [Compound 133b, (E)-3-(2-((4-((R)-2-(4-chlorophenyl)benzo[d][1,3]dioxol-4-yl)piperidin-1-yl)methyl)-1-(((S)-oxetan-2-yl)methyl)-1H-imidazol-5-yl)-2-methylacrylic acid]	48
C/C(=C\c1cnc(CN2CCC(c3cccc4c3O[C@@](C)(c3ccc(Cl)cc3)O4)CC2)n1C[C@@H]1CCO1)C(=O)O [Compound 134a, (E)-3-(2-((4-((S)-2-(4-chlorophenyl)-2-methylbenzo [d][1,3]dioxol-4-yl)piperidin-1-yl)methyl)-1-(((S)-oxetan-2-yl)methyl)-1H-imidazol-5-yl)-2-methylacrylic acid]	0.21
C/C(=C\c1cnc(CN2CCC(c3cccc4c3O[C@](C)(c3ccc(Cl)cc3)O4)CC2)n1C[C@@H]1CCO1)C(=O)O [Compound 134b, (E)-3-(2-((4-((R)-2-(4-chlorophenyl)-2-methylbenzo[d][1,3]dioxol-4-yl)piperidin-1-yl)methyl)-1-(((S)-oxetan-2-yl)methyl)-1H-imidazol-5-yl)-2-methylacrylic acid]	17
C[C@]1(c2ccc(Cl)cc2F)Oc2cccc(C3CCN(Cc4ncc(/C=C/C(=O)O)n4C[C@@H]4CCO4)CC3)c2O1 [Compound 135a, (E)-3-(2-((4-((S)-2-(4-chloro-2-fluorophenyl)-2-methylbenzo[d][1,3]dioxol-4-yl)piperidin-1-yl)methyl)-1-(((S)-oxetan-2-yl)methyl)-1H-imidazol-5-yl)acrylic acid]	0.033
C[C@@]1(c2ccc(Cl)cc2F)Oc2cccc(C3CCN(Cc4ncc(/C=C/C(=O)O)n4C[C@@H]4CCO4)CC3)c2O1 [Compound 135b, (E)-3-(2-((4-((R)-2-(4-chloro-2-fluorophenyl)-2-methylbenzo[d][1,3]dioxol-4-yl)piperidin-1-yl)methyl)-1-(((S)-oxetan-2-yl)methyl)-1H-imidazol-5-yl)acrylic acid]	15
CC1(c2ccc(Cl)cc2F)Oc2cccc(C3CCN(Cc4nnc(/C=C/C(=O)O)n4C[C@@H]4CCO4)CC3)c2O1 (stereo partly drawn) [Compound 136a, (E)-3-(5-((4-(2-(4-chloro-2-fluorophenyl)-2-methylbenzo[d][1,3]dioxol-4-yl)piperidin-1-yl)methyl)-4-(((S)-oxetan-2-yl)methyl)-4H-1,2,4-triazol-3-yl)acrylic acid]	0.11
C/C(=C\c1nnc(CN2CCC(c3cccc4c3OC(C)(c3ccc(Cl)cc3F)O4)CC2)n1C[C@@H]1CCO1)C(=O)O (stereo partly drawn) [Compound 137a, (E)-3-(5-((4-(2-(4-chloro-2-fluorophenyl)-2-methylbenzo[d][1,3]dioxol-4-yl)piperidin-1-yl)methyl)-4-(((S)-oxetan-2-yl)methyl)-4H-1,2,4-triazol-3-yl)-2-methylacrylic acid]	0.3
CCn1cncc1Cn1c(/C=C(\C)C(=O)O)cnc1CN1CCC(c2cccc3c2OC(C)(c2ccc(Cl)cc2F)O3)CC1 (stereo not drawn) [Compound 138, (E)-3-(2-((4-(2-(4-chloro-2-fluorophenyl)-2-methylbenzo[d][1,3]dioxol-4-yl)piperidin-1-yl)methyl)-1-((1-ethyl-1H-imidazol-5-yl)methyl)-1H-imidazol-5-yl)-2-methylacrylic acid]	0.0034
CCn1cncc1Cn1c(/C=C(\C)C(=O)O)cnc1CN1CCC(c2cccc3c2O[C@@](C)(c2ccc(Cl)cc2F)O3)CC1 [Compound 138a, (S,E)-3-(2-((4-(2-(4-chloro-2-fluorophenyl)-2-methylbenzo[d][1,3]dioxol-4-yl)piperidin-1-yl)methyl)-1-((1-ethyl-1H-imidazol-5-yl)methyl)-1H-imidazol-5-yl)-2-methylacrylic acid]	0.0023
CCn1cncc1Cn1c(/C=C(\C)C(=O)O)cnc1CN1CCC(c2cccc3c2O[C@](C)(c2ccc(Cl)cc2F)O3)CC1 [Compound 138b, (R,E)-3-(2-((4-(2-(4-chloro-2-fluorophenyl)-2-methylbenzo[d][1,3]dioxol-4-yl)piperidin-1-yl)methyl)-1-((1-ethyl-1H-imidazol-5-yl)methyl)-1H-imidazol-5-yl)-2-methylacrylic acid]	0.66
CCn1cncc1Cn1c(/C=C/C(=O)O)cnc1CN1CCC(c2cccc3c2O[C@@](C)(c2ccc(Cl)cc2F)O3)CC1 [Compound 139a, (S,E)-3-(2-((4-(2-(4-chloro-2-fluorophenyl)-2-methylbenzo[d][1,3]dioxol-4-yl)piperidin-1-yl)methyl)-1-((1-ethyl-1H-imidazol-5-yl)methyl)-1H-imidazol-5-yl)acrylic acid]	0.0012
CCn1cncc1Cn1c(/C=C/C(=O)O)cnc1CN1CCC(c2cccc3c2O[C@](C)(c2ccc(Cl)cc2F)O3)CC1 [Compound 139b, (R,E)-3-(2-((4-(2-(4-chloro-2-fluorophenyl)-2-methylbenzo[d][1,3]dioxol-4-yl)piperidin-1-yl)methyl)-1-((1-ethyl-1H-imidazol-5-yl)methyl)-1H-imidazol-5-4)acrylic acid]	0.2
CC1(c2ccc(Cl)cc2F)Oc2cccc(C3CCN(Cc4ncc(/C=C/C(=O)O)n4C[C@@H]4CCCO4)CC3)c2O1 (stereo partly drawn) [Compound 140a, (E)-3-(2-((4-(2-(4-chloro-2-fluorophenyl)-2-methylbenzo[d][1,3]dioxol-4-yl)piperidin-1-yl)methyl)-1-(((S)-tetrahydrofuran-2-yl)methyl)-1H-imidazol-5-yl)acrylic acid]	0.09
COCCn1c(/C=C/C(=O)O)cnc1CN1CCC(c2cccc3c2OC(C)(c2ccc(Cl)cc2F)O3)CC1 (stereo not drawn) [Compound 141, (E)-3-(2-((4-(2-(4-chloro-2-fluorophenyl)-2-methylbenzo[d][1,3]dioxol-4-yl)piperidin-1-yl)methyl)-1-(2-methoxyethyl)-1H-imidazol-5-yl)acrylic acid]	0.012
CCn1cncc1Cn1c(/C=C/C(=O)O)nnc1CN1CCC(c2cccc3c2OC(C)(c2ccc(Cl)cc2F)O3)CC1 (stereo not drawn) [Compound 142, (E)-3-(5-((4-(2-(4-chloro-2-fluorophenyl)-2-methylbenzo[d][1,3]dioxol-4-yl)piperidin-1-yl)methyl)-4-((1-ethyl-1H-imidazol-5-yl)methyl)-4H-1,2,4-triazol-3-yl)acrylic acid]	0.012
CCn1cncc1Cn1c(CCC(=O)O)cnc1CN1CCC(c2cccc3c2OC(C)(c2ccc(Cl)cc2F)O3)CC1 (stereo not drawn) [Compound 143, 3-(2-((4-(2-(4-chloro-2-fluorophenyl)-2-methylbenzo[d][1,3]dioxol-4-yl)piperidin-1-yl)methyl)-1-((1-ethyl-1H-imidazol-5-yl)methyl)-1H-imidazol-5-yl)propanoic acid]	0.0059
CCn1cncc1Cn1c(CCC(=O)O)nnc1CN1CCC(c2cccc3c2OC(C)(c2ccc(Cl)cc2F)O3)CC1 (stereo not drawn) [Compound 144, 3-(5-((4-(2-(4-chloro-2-fluorophenyl)-2-methylbenzo[d][1,3]dioxol-4-yl)piperidin-1-yl)methyl)-4-((1-ethyl-1H-imidazol-5-yl)methyl)-4H-1,2,4-triazol-3-yl)propanoic acid]	0.015
C[C@]1(c2ccc(Cl)cc2F)Oc2cccc(C3CCN(Cc4ncc(/C=C/C(=O)O)n4CCOC(F)(F)F)CC3)c2O1 [Compound 145, (S,E)-3-(2-((4-(2-(4-chloro-2-fluorophenyl)-2-methylbenzo[d][1,3]dioxol-4-yl)piperidin-1-yl)methyl)-1-(2-(trifluoromethoxy)ethyl)-1H-imidazol-5-yl)acrylic acid]	0.16
CC1(c2ccc(Cl)cc2F)Oc2cccc(C3CCN(Cc4ncc(/C=C/C(=O)O)n4Cc4cccnc4C(F)(F)F)CC3)c2O1 (stereo not drawn) [Compound 146, (E)-3-(2-((4-(2-(4-chloro-2-fluorophenyl)-2-methylbenzo[d][1,3]dioxol-4-yl)piperidin-1-yl)methyl)-1-((2-(trifluoromethyl)pyridin-3-yl)methyl)-1H-imidazol-5-yl)acrylic acid]	1.9
Cc1ncccc1Cn1c(/C=C/C(=O)O)cnc1CN1CCC(c2cccc3c2OC(C)(c2ccc(Cl)cc2F)O3)CC1 (stereo not drawn) [Compound 147, (E)-3-(2-((4-(2-(4-chloro-2-fluorophenyl)-2-methylbenzo[d][1,3]dioxol-4-yl)piperidin-1-yl)methyl)-1-((2-methylpyridin-3-yl)methyl)-1H-imidazol-5-yl)acrylic acid]	0.045
CCc1ncccc1Cn1c(/C=C/C(=O)O)cnc1CN1CCC(c2cccc3c2OC(C)(c2ccc(Cl)cc2F)O3)CC1 (stereo not drawn) [Compound 148, (E)-3-(2-((4-(2-(4-chloro-2-fluorophenyl)-2-methylbenzo[d][1,3]dioxol-4-yl)piperidin-1-yl)methyl)-1-((2-ethylpyridin-3-yl)methyl)-1H-imidazol-5-yl)acrylic acid]	0.98
COc1cccc(Cn2c(/C=C/C(=O)O)cnc2CN2CCC(c3cccc4c3OC(C)(c3ccc(Cl)cc3F)O4)CC2)c1 (stereo not drawn) [Compound 149, (E)-3-(2-((4-(2-(4-chloro-2-fluorophenyl)-2-methylbenzo[d][1,3]dioxol-4-yl)piperidin-1-yl)methyl)-1-(3-methoxybenzyl)-1H-imidazol-5-yl)acrylic acid]	0.12
